From patent publication US20250171430A1, “PYRAZOLYL COMPOUNDS AS KV7 CHANNEL ACTIVATORS” (Biohaven Therapeutics Ltd., priority 2022, published 2025)

Molecular target: T1, Kv7.2/7.3 (Homo sapiens, UniProt O43525+O43526)
T1 construct: Kv7.2 tetracycline-induced, Kv7.3 constitutive
Test: Kv7.2/7.3 Activation Assay (Thallium Flux Assay)
Assay type: cell-based
Settings: hKV7.2/7.3 cell line; test compound at single concentration of 10 μM; fluorescence at 90 sec normalized to positive control (retigabine, 30 μM)
Outline: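 Human Kv7.2/7.3 cells with Kv7.2 induced overnight by 10 ng/mL tetracycline were loaded with FluxOR II Green for 1 h at 37 °C. Compounds were tested at 10 μM in 0.1% DMSO/extracellular solution, pH 7.4. Thallium/potassium stimulus was added after a 15 s baseline, and 90 s fluorescence (ex 475/em 530 nm) was normalized to 30 μM retigabine.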

| Compound | Kv7.2/7.3 Activity |
| --- | --- |
| Cn1nc(NC(=O)CC2COC2)c(C2CCC2)c1-c1ccc(OC(F)(F)F)cc1 [Compound 84, N-(4-cyclobutyl-1-methyl-5-(4-(trifluoromethoxy)phenyl)-1H-pyrazol-3-yl)-2-(oxetan-3-yl)acetamide] | − (“−” No Activity < 0.15) |
| Cn1nc(NC(=O)CC2COC2)c(C2CCC2)c1-c1ccc(F)cc1 [Compound 85, N-(4-cyclobutyl-5-(4-fluorophenyl)-1-methyl-1H-pyrazol-3-yl)-2-(oxetan-3-yl)acetamide] | − (“−” No Activity < 0.15) |
| Cn1nc(NC(=O)CC2COC2)c(C2CCC2)c1-c1cnc(C(F)(F)F)s1 [Compound 86, N-(4-cyclobutyl-1-methyl-5-(2-(trifluoromethyl)thiazol-5-yl)-1H-pyrazol-3-yl)-2-(oxetan-3-yl)acetamide] | − (“−” No Activity < 0.15) |
| Cn1nc(NC(=O)CC2(O)CCC2)c(C2CCC2)c1-c1ccc(OC(F)(F)F)cc1 [Compound 87, N-(4-cyclobutyl-1-methyl-5-(4-(trifluoromethoxy)phenyl)-1H-pyrazol-3-yl)-2-(1-hydroxycyclobutyl)acetamide] | + (“+” Moderate Activity 0.15-0.7) |
| Cn1nc(NC(=O)CC2(C(F)(F)F)CCC2)c(C2CCC2)c1C1(C(F)(F)F)CCC1 [Compound 88, N-(4-cyclobutyl-1-methyl-5-(1-(trifluoromethyl)cyclobutyl)-1H-pyrazol-3-yl)-2-(1-(trifluoromethyl)cyclobutyl)acetamide] | ++ (“++” High Activity ≥ 0.7) |
| Cn1nc(NC(=O)CC2(C(F)(F)F)CC2)c(C2CCC2)c1C1(C(F)(F)F)CCC1 [Compound 89, N-(4-cyclobutyl-1-methyl-5-(1-(trifluoromethyl)cyclobutyl)-1H-pyrazol-3-yl)-2-(1-(trifluoromethyl)cyclopropyl)acetamide] | ++ (“++” High Activity ≥ 0.7) |
| Cn1nc(NC(=O)Cc2ccc(F)c(F)c2)c(C2CCC2)c1C1(C(F)(F)F)CCC1 [Compound 90, N-(4-cyclobutyl-1-methyl-5-(1-(trifluoromethyl)cyclobutyl)-1H-pyrazol-3-yl)-2-(3,4-difluorophenyl)acetamide] | + (“+” Moderate Activity 0.15-0.7) |
| Cn1nc(NC(=O)Cc2ccc(F)c(F)c2)c(C2CCC2)c1-c1ccc(F)cc1 [Compound 91, N-(4-cyclobutyl-5-(4-fluorophenyl)-1-methyl-1H-pyrazol-3-yl)-2-(3,4-difluorophenyl)acetamide] | + (“+” Moderate Activity 0.15-0.7) |
| Cn1nc(NC(=O)Cc2ccc(F)c(F)c2)c(C2CCC2)c1-c1ccc(OC(F)(F)F)cc1 [Compound 92, N-(4-cyclobutyl-1-methyl-5-(4-(trifluoromethoxy)phenyl)-1H-pyrazol-3-yl)-2-(3,4-difluorophenyl)acetamide] | ++ (“++” High Activity ≥ 0.7) |
| Cc1c(C2CCC2)c(NC(=O)CC2CC(F)(F)C2)nn1Cc1ccc(F)cc1 [Compound 93, N-(4-cyclobutyl-1-(4-fluorobenzyl)-5-methyl-1H-pyrazol-3-yl)-2-(3,3-difluorocyclobutyl)acetamide] | + (“+” Moderate Activity 0.15-0.7) |
| Cc1c(C2CCC2)c(NC(=O)CC(C)(C)C(F)(F)F)nn1Cc1ccc(F)cc1 [Compound 94, N-(4-cyclobutyl-1-(4-fluorobenzyl)-5-methyl-1H-pyrazol-3-yl)-4,4,4-trifluoro-3,3-dimethylbutanamide] | − (“−” No Activity < 0.15) |
| Cc1c(C2CCC2)c(NC(=O)CC2(C(F)(F)F)CC2)nn1Cc1ccc(F)cc1 [Compound 95, N-(4-cyclobutyl-1-(4-fluorobenzyl)-5-methyl-1H-pyrazol-3-yl)-2-(1-(trifluoromethyl)cyclopropyl)acetamide] | − (“−” No Activity < 0.15) |
| Cn1nc(NC(=O)CC(C)(C)C(F)(F)F)c(C2CCC2)c1-c1ccc(Cl)s1 [Compound 96, N-(5-(5-chlorothiophen-2-yl)-4-cyclobutyl-1-methyl-1H-pyrazol-3-yl)-4,4,4-trifluoro-3,3-dimethylbutanamide] | ++ (“++” High Activity ≥ 0.7) |
| Cn1nc(NC(=O)CC(C)(C)C(F)(F)F)c(C2CCC2)c1-c1ccc(F)cc1F [Compound 97, N-(4-cyclobutyl-5-(2,4-difluorophenyl)-1-methyl-1H-pyrazol-3-yl)-4,4,4-trifluoro-3,3-dimethylbutanamide] | ++ (“++” High Activity ≥ 0.7) |
| Cn1nc(NC(=O)CC2CC(F)(F)C2)c(C2CCC2)c1-c1ccc(F)cc1F [Compound 98, N-(4-cyclobutyl-5-(2,4-difluorophenyl)-1-methyl-1H-pyrazol-3-yl)-2-(3,3-difluorocyclobutyl)acetamide] | ++ (“++” High Activity ≥ 0.7) |
| Cn1nc(NC(=O)C[C@H]2CC2(F)F)c(C2CCC2)c1-c1ccc(F)cc1 [Compound 99, (S)-N-(4-cyclobutyl-5-(4-fluorophenyl)-1-methyl-1H-pyrazol-3-yl)-2-(2,2-difluorocyclopropyl)acetamide] | ++ (“++” High Activity ≥ 0.7) |
| Cn1nc(NC(=O)C[C@H]2CC2(C)C)c(C2CCC2)c1-c1ccc(F)cc1 [Compound 100, (R)-N-(4-cyclobutyl-5-(4-fluorophenyl)-1-methyl-1H-pyrazol-3-yl)-2-(2,2-dimethylcyclopropyl)acetamide] | ++ (“++” High Activity ≥ 0.7) |

More lines, now with the values ahead:

| Kv7.2/7.3 Activity | Compound |
| --- | --- |
| ++ (“++” High Activity ≥ 0.7) | Cn1nc(NC(=O)CCC(F)(F)C(F)(F)F)c(C2CCC2)c1-c1ccc(F)cc1 [Compound 101, N-(4-cyclobutyl-5-(4-fluorophenyl)-1-methyl-1H-pyrazol-3-yl)-4,4,5,5,5-pentafluoropentanamide] |
| ++ (“++” High Activity ≥ 0.7) | Cn1nc(NC(=O)CC2CCCC2)c(C2CCC2)c1-c1ccc(F)cc1 [Compound 102, N-(4-cyclobutyl-5-(4-fluorophenyl)-1-methyl-1H-pyrazol-3-yl)-2-cyclopentylacetamide] |
| + (“+” Moderate Activity 0.15-0.7) | Cn1nc(NC(=O)C2(c3ccccc3)CC2)c(C2CCC2)c1-c1ccc(F)cc1 [Compound 103, N-(4-cyclobutyl-5-(4-fluorophenyl)-1-methyl-1H-pyrazol-3-yl)-1-phenylcyclopropane-1-carboxamide] |
| ++ (“++” High Activity ≥ 0.7) | CC[C@H](C)CC(=O)Nc1nn(C)c(-c2ccc(F)cc2)c1C1CCC1 [Compound 104, (S)-N-(4-cyclobutyl-5-(4-fluorophenyl)-1-methyl-1H-pyrazol-3-yl)-3-methylpentanamide] |
| ++ (“++” High Activity ≥ 0.7) | Cn1nc(NC(=O)CC2(C(F)(F)F)CC2)c(C2CCC2)c1-c1ccccc1F [Compound 105, N-(4-cyclobutyl-5-(2-fluorophenyl)-1-methyl-1H-pyrazol-3-yl)-2-(1-(trifluoromethyl)cyclopropyl)acetamide] |
| ++ (“++” High Activity ≥ 0.7) | Cn1nc(NC(=O)CC2CC(F)(F)C2)c(C2CCC2)c1-c1ccccc1F [Compound 106, N-(4-cyclobutyl-5-(2-fluorophenyl)-1-methyl-1H-pyrazol-3-yl)-2-(3,3-difluorocyclobutyl)acetamide] |
| ++ (“++” High Activity ≥ 0.7) | Cn1nc(NC(=O)CC2(C(F)(F)F)CC2)c(C2CCC2)c1-c1ccc(F)cc1F [Compound 107, N-(4-cyclobutyl-5-(2,4-difluorophenyl)-1-methyl-1H-pyrazol-3-yl)-2-(1-(trifluoromethyl)cyclopropyl)acetamide] |
